We go through 1 substance from patent US6989364B1, “Methods for treating cardiac hypertrophy by administering IFN-γ” (Genentech, Inc., priority 1998, dated 2006).

The test system of series [1] is male Sprague/Dawley (SD) rats. Kind of series: Cardiac hypertrophy induced by fluprostenol in vivo: body and organ weights. More on the design: species or system rat. An excerpt:
This pharmacological model tests the ability of IFN-γ to inhibit cardiac hypertrophy induced in rats (e.g. male Wistar or Sprague-Dawley) by subcutaneous injection of fluprostenol (an agonist analog of PGF2α). It is known that rats with pathologic cardiac hypertrophy induced by myocardial infarction have chronically elevated levels of extractable PGF2α in their myocardium. Lai et al, Am. J. Physiol. (Heart Circ. Physiol.) 271:H2197–H2208 (1996). Accordingly, factors that can inhibit the effects of fluprostenol on myocardial growth in vivo are potentially useful for treating cardiac hypertrophy. The effects of IFN-γ on cardiac hypertrophy are determined by measuring the weight of heart, ventricles, and left ventricle (normalized by body weight) relative to fluprostenol-treated rats not receiving IFN-γ. A detailed description of this assay is provided in the examples.
Animals All experimental procedures conformed to the guiding principles of the American Physiology Society, and were approved by Genentech's Institutional Animal Care and Use Committee. The animals used in this study were male Sprague/Dawley (SD) rats (8 weeks of age, Charles River Breeding Laboratories, Inc.). The animals were acclimated to the facility for at least one week before experiments, fed a pelleted rat chow and water ad libitum, and housed in a light and temperature controlled room.
Administration of fluprostenol and/or IFN-γ Rats received subcutaneous injection of fluprostenol (Cayman Chemical, Ann Arbor, Mich.) at 0.15 mg/kg, recombinant mouse IFN-γ (Genentech, Inc., South San Francisco, Calif.) at 0.08 mg/kg, combination of fluprostenol and IFN-γ, or saline vehicle, twice a day for 14 days. In the IFN-γ and fluprostenol+IFN-γ groups, animals were pretreated with IFN-γ for one day. Body weight was measured before and after treatment. A previous study has shown that the dose of fluprostenol used here is the lowest dose which produces a significant cardiac hypertrophy in rats. Lai et al., supra.
Measurement of organ weights Under anesthesia with ketamine/xylazine, the heart, kidney, and spleen were removed, dissected and weighed. The left ventricle was stored at […] for evaluation of gene expression.
Statistical analyisis Results are expressed as mean±SEM. One way analysis of variance (ANOVA) was performed to assess differences in parameters between groups. Significant differences were then subjected to post hoc analysis using Newman-Keuls method; P<0.05 was considered significant.

For series [2], the system named is adult rat cardiac myocytes. Kind of series: Inhibition of PGF2α-induced spreading response of adult myocytes. The series is classed as cell-based. As for the experimental part:
Myocytes were pre-incubated with saline vehicle or IFN-γ (500 U/ml) on day of isolation. A second addition of vehicle or IFN-γ was performed 24h after isolation, along with the addition of either vehicle or PGF2α (10^−7 M). After an additional 72 hr incubation, cells were fixed in glutaraldehyde, stained with eosin Y and viewed by fluorescence microscopy. A, B, C Cardiac myocytes after 4 days in culture: control, PGF2α, and PGF2α+IFN-γ, respectively. D, E, F Histographs showing maximum breadth of rod shaped cardiac myocytes versus percent frequency of breadth occurrence. The maximum breadth of rod-shaped cells was determined by fluorescence microscopy and imaging software. At least 200 rod shaped cells from a single experiment were examined per group.
Myocytes were pre-incubated with saline vehicle or IFN-γ on day of isolation. A second amount of IFN-γ was added 24 hr after isolation, along with the addition of either vehicle or PGF2α (10^−7 M). After an additional 72 hr incubation, cells were fixed in glutaraldehyde, stained with eosin Y and viewed under fluorescence. Quantitation of myocyte morphology: A control, B PGF2α, C PGF2α+IFN-γ (25 U/ml), D PGF2α+IFN-γ (100 U/ml), E PGF2α+IFN-γ (500 U/ml). Histographs showing maximum breadth of rod shaped cardiac myocytes versus percent frequency of breadth occurrence. The maximum breadth of rod-shaped cells was determined by fluorescence microscopy and imaging software. At least 200 rod shaped cells from a single experiment were examined per group.
In this assay, ventricular myocytes are isolated from a single (male Sprague-Dawley) rat, essentially following a modification of the procedure described in detail by Piper et al., “Adult ventricular rat heart muscle cells.” In: Cell Culture Techniques in Heart and Vessel Research, H. M. Piper, ed., Berlin: Spinger-Verlag, 1990, pp. 36–60. This procedure permits the isolation of adult ventricular myocytes and the long-term culture of these cells in the rod-shaped phenotype. […] Piper et al., supra; Lai et al., Am J. Physiol. 1996; 271 (Heart Circ. Phvsiol. 40):H2197–H2208. The inhibition of myocyte spreading induced by PGF2α, or PGF2α analogs, (e.g. fluprostenol) and phenylephrine by various potential inhibitors of cardiac hypertrophy is then tested. A detailed protocol is described in the examples that follow.
Adult myocyte cultures The procedure used for the isolation of ventricular myocytes from adult rats was a modification of a procedure described by Piper et al., supra, and is detailed in Lai et al., supra. For each myocyte preparation, one male Sprague-Dawley rat weighing about 250 g was anesthetized with pentobarbital sodium, and the heart was removed. Extraneous tissue was trimmed from the heart, and it was mounted onto a Langendorff system that was temperature controlled at 37° C. The heart was perfused with about 40 ml of Krebs buffer (110 mM NaCl, 2.6 mM KCl, 1.2 mM KH2PO4, 1.2 mM MgSO4.7H2O, 25 mM NaHCO3 and 11 mM glucose). A solution containing 30 mg of collagenase and 12.5 μl of 100 mM CaCl2 in 50 ml of Krebs buffer was then recirculated through the heart for 30 minutes. The heart was removed from the Langendorff apparatus, and the atria and connective tissues were removed. The ventricles were cut into 2 mm cubes with dissecting scissors, and further digested in a fresh collagenase solution (30 mg collagenase and 400 mg BSA dissolved in Krebs buffer with 12.5 μl of 100 mM CaCl2) for five minutes at 37° C. During the digestion, the tissue suspension was gently band shaken one time per minute. After the digestion, the supernatant was removed and saved, and the remaining tissue was further digested in fresh collagenase solution for an additional five minutes.

Where [3] appears, read: IFN-γ 0.08 mg/kg s.c. twice a day, rats.
Setting [4] is: s.c. twice a day for 14 days, fluprostenol 0.15 mg/kg, IFN-γ 0.08 mg/kg, mean ± SEM.

With “IFN-γ: recombinant mouse IFN-γ (Genentech, Inc., South San Francisco, Calif., or Genzyme, Cambridge, Mass.)”, in series [1] (14 days, fluprostenol and IFN-γ alone vs vehicle, fluprostenol+IFN-γ vs fluprostenol group), the “Ratio of heart, ventricular, and left ventricular weights to body weight (FIG. 4)” value is on record as “did not significantly alter”. In series [1] (setting [3]), the “Effect on body weight, pilot study” value was “little effects on body weight” and the “Effect on fluprostenol-induced cardiac hypertrophy, pilot study” value is recorded as “inhibited fluprostenol-induced cardiac hypertrophy”. The “BWO, basal levels of body weight” value in series [1] (before treatment, mean ± SEM) was 292.5 ± 3.2 g. For the same substance, in series [1] (setting [4]), the “BW, body weight post treatment” value was 380.8 ± 6.1 g; the “HW, heart weight” value was “.956 ± .029 g”; the “KW, kidney weight” value is 1.327 ± .035 g; the “KW/BW, kidney weight to body weight” value is listed as 3.483 ± .069 g/kg. Also, in series [1] (setting [4]), the “LVW, left ventricular weight” value is “.696 ± .023 g”; the “SW, spleen weight” value is “.924 ± .068 g”; the “SW/BW, spleen weight to body weight” value is recorded as 2.415 ± .149 g/kg; the “VW, ventricular weight” value was “.914 ± .029 g”. Further, in series [1] (setting [4]), the “ΔBW, BW-BWO” value was determined as 88.3 ± 5.0 g. For the same substance, in series [2] (IFN-γ 25, 100, 500 U/ml, PGF2α 10^−7 M), the “Dose dependence of the inhibitory effect on PGF2α-induced myocyte spreading” value is recorded as “dose dependent”. Also, in series [2] (IFN-γ 500 U/ml, PGF2α 10^−7 M, 72 hr, P<0.001 vs PGF2α), the “Inhibition of PGF2α-induced myocyte spreading (maximum cell breadth of rod shaped cells)” value is given as “significantly inhibited their response to PGF2α”. Moreover, in series [2] (IFN-γ alone, 500 U/ml, no PGF2α), the “Effect of the substance alone on morphology of the cells” value is listed as “had no observable effect on the morphology of the cells”.
